Holding throughout (type): cell-based
In assay [1] the target is T1, BRAF V600E (Homo sapiens, UniProt P15056, V600E).
T1 construct: endogenous C-terminal HiBiT fusion tag on BRAF V600E allele; endogenous in cells; host or cells: A375 clone 1F10 (CRISPR-Cas9 knock-in of the HiBiT tag; parental A375 from ATCC)
The assay is described as follows: BRAF HiBiT degradation assay, C-terminal HiBiT-tagged BRAF V600E A375 cells (clone 1F10), Nano-Glo HiBiT Lytic assay. The settings on record: for Dmax: A-375. The method in brief: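 A375 cells with CRISPR knock-in C-terminal HiBiT on endogenous BRAF V600E (clone 1F10) were seeded and cultured 24 h at 37 °C, then dosed with an 11-point half-log series (1 μM to 0.01 nM, duplicate, 0.2% DMSO). Lytic HiBiT luminescence gave % protein remaining; DC50 was the fitted concentration at 50%.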

Assay [2] has as its target T2, BRAF G466V (Homo sapiens, UniProt P15056, G466V).
T2 construct: Horizon Discovery (HCT-116 BRAF−/− cells); host or cells: HCT-116 BRAF−/− cells, clone 8, lentiviral transduction
The assay is described as follows: BRAF HiBiT degradation assay, C-terminal HiBiT-tagged BRAF G466V overexpressed in HCT-116 BRAF−/− cells (clone 8), Nano-Glo HiBiT Lytic assay. The method in brief:
(§1)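 HCT-116 BRAF−/− cells stably expressing the tagged mutant were seeded at 3,000 cells/well and grown 24 h at 37 °C before an 11-point half-log series from 1 μM to 0.01 nM, run in duplicate at 0.2% DMSO. Lytic HiBiT luminescence gave % protein remaining versus DMSO controls; DC50 was the fitted concentration at 50%.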
(With HiBiT, luminescence reflects the tagged protein that the partner subunit can reach.)

Assay [3] concerns the target T3, BRAF G469A (Homo sapiens, UniProt P15056, G469A).
T3 construct: Horizon Discovery (HCT-116 BRAF−/− cells); host or cells: HCT-116 BRAF−/− cells, clone 34, lentiviral transduction
The assay is described as follows: BRAF HiBiT degradation assay, C-terminal HiBiT-tagged BRAF G469A overexpressed in HCT-116 BRAF−/− cells (clone 34), Nano-Glo HiBiT Lytic assay. The method in brief: as §1

Assay [4] deals with T4, BRAF D594G (Homo sapiens, UniProt P15056, D594G).
T4 construct: Horizon Discovery (HCT-116 BRAF−/− cells); host or cells: HCT-116 BRAF−/− cells, clone 63, lentiviral transduction
The assay is described as follows: BRAF HiBiT degradation assay, C-terminal HiBiT-tagged BRAF D594G overexpressed in HCT-116 BRAF−/− cells (clone 63), Nano-Glo HiBiT Lytic assay. The method in brief:
as §1

The mark [5] stands for this setting: A375 (BRAF V600E), DC50 at 50%: fitted conc. at Y=50.
The mark [6] stands for this setting: A375 (BRAF V600E), percentage protein degraded at maximal compound effect relative to DMSO.
[7] abbreviates: BRAF G466V, DC50 at 50%: fitted conc. at Y=50.
Setting [8] is: HCT-116, BRAF G466V, percentage protein degraded at maximal compound effect relative to DMSO.
Setting [9] is: Class 2, BRAF G469A, DC50 at 50%: fitted conc. at Y=50.
The mark [10] stands for this setting: HCT-116, Class 2, BRAF G469A, percentage protein degraded at maximal compound effect relative to DMSO.
[11] abbreviates: BRAF D594G, DC50 at 50%: fitted conc. at Y=50.
The mark [12] stands for this setting: HCT-116, BRAF D594G, percentage protein degraded at maximal compound effect relative to DMSO.
Where [13] appears, read: A375 (BRAF V600E, Class 1), DC50 at 50% degradation.
[14] abbreviates: A375 (BRAF V600E, Class 1), observed Dmax, % protein degraded relative to DMSO control.
[15] abbreviates: BRAF G466V (Class 3), HCT-116 BRAF−/− cells, DC50 at 50% degradation.
Setting [16] is: BRAF G466V (Class 3), HCT-116 BRAF−/− cells, observed Dmax relative to DMSO control.
Where [17] appears, read: BRAF G469A (Class 2), HCT-116 BRAF−/− cells, DC50 at 50% degradation.
The mark [18] stands for this setting: BRAF G469A (Class 2), HCT-116 BRAF−/− cells, observed Dmax relative to DMSO control.
Setting [19] is: BRAF D594G (Class 3), HCT-116 BRAF−/− cells, DC50 at 50% degradation.
Setting [20] is: BRAF D594G (Class 3), HCT-116 BRAF−/− cells, observed Dmax relative to DMSO control.

Drawing on patent US20260317324A1, “BIFUNCTIONAL COMPOUNDS FOR DEGRADING BRAF VIA UBIQUITIN PROTEOSOME PATHWAY” (Nurix Therapeutics, Inc., priority 2023, published 2026), this text covers DC50 and Dmax for eight molecules.

What is called DC50 is the midpoint of the concentration-degradation curve. The term Dmax denotes the greatest extent of degradation seen.

T4 sequence (P15056 whole entry D594G): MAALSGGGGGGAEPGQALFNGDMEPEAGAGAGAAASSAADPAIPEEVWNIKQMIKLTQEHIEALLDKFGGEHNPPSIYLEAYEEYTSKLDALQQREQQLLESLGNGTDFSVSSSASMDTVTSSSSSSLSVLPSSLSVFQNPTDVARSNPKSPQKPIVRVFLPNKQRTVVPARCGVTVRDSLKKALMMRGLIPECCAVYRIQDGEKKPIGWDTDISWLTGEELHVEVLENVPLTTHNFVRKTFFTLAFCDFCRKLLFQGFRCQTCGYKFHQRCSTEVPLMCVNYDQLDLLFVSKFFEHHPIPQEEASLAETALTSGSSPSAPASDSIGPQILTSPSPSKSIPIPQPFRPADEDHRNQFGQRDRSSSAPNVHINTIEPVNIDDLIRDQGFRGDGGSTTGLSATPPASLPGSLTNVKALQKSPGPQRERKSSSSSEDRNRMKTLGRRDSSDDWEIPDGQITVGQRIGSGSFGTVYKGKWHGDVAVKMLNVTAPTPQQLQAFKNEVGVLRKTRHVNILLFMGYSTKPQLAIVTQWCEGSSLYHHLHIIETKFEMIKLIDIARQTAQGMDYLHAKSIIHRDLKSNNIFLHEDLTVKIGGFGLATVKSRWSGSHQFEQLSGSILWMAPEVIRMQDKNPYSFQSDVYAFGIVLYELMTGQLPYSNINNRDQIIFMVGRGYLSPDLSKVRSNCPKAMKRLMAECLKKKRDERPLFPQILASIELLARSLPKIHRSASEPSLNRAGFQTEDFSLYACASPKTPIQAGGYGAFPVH
T2 sequence (P15056 whole entry G466V): as the sequence (P15056 whole entry D594G) above, with G466V, G594D counted along it
T1 sequence (P15056 whole entry V600E, the tested form may be a part): as the sequence (P15056 whole entry D594G) above, with G594D, V600E counted along it
T3 sequence (P15056 whole entry G469A): as the sequence (P15056 whole entry D594G) above, with G469A, G594D counted along it

As for `CCCS(=O)(=O)Nc1cccc(-c2nc(-c3ccc(C4CCN(C(=O)CC5CCN(c6ccc(C7CCC(=O)NC7=O)cn6)CC5)CC4)cc3)sc2-c2ccnc(N)n2)c1F` (racemic) [Compound 207, Rac-N-{3-[5-(2-aminopyrimidin-4-yl)-2-(4-{1-[2-(1-{5-[(3R)-2,6-dioxopiperidin-3-yl]pyridin-2-yl}piperidin-4-yl)acetyl]piperidin-4-yl}phenyl)-1,3-thiazol-4-yl]-2-fluorophenyl}propane-1-sulfonamide], the DC50 in assay [1] (setting [5]) was 10 to 50 nM; in assay [2] (setting [7]), greater than 500 nM; in assay [3] (setting [9]) it was greater than 500 nM; in assay [4] (setting [11]) it was greater than 500 nM. The Dmax in assay [1] (setting [6]) is greater than 70%; in assay [2] (setting [8]), 30 to 70%; in assay [3] (setting [10]) it was 30 to 70%; in assay [4] (setting [12]), 30 to 70%.

With `O=C1CC[C@H](c2ccc(N3CCC(CN4CCN(c5ccc(-n6cc(-c7cc(F)cc(NS(=O)(=O)N8CCCC8)c7F)c(-c7ccncc7)n6)cc5)CC4)CC3)nc2)C(=O)N1` [Compound 301, N-{3-[1-(4-{4-[(1-{5-[(3R)-2,6-dioxopiperidin-3-yl]pyridin-2-yl}piperidin-4-yl)methyl]piperazin-1-yl}phenyl)-3-(pyridin-4-yl)-1H-pyrazol-4-yl]-2,5-difluorophenyl}pyrrolidine-1-sulfonamide], the DC50 in assay [1] (setting [13]) is less than 10 nM; in assay [2] (setting [15]) it was less than 10 nM; in assay [3] (setting [17]), 10 to 50 nM; in assay [4] (setting [19]) it was less than 10 nM. Besides, the Dmax in assay [1] (setting [14]) was greater than 70%; in assay [2] (setting [16]) it was greater than 70%; in assay [3] (setting [18]) it was greater than 70%; in assay [4] (setting [20]), 30 to 70%.

In the case of `O=C1CCC(c2ccc(N3CCC(CN4CCN(c5ccc(-n6cc(-c7cc(F)cc(NS(=O)(=O)N8CC[C@@H](F)C8)c7F)c(-c7ccncc7)n6)nc5)CC4)CC3)nc2)C(=O)N1` (mixture of isomers) [Compound 304, (3R)—N-{3-[1-(5-{4-[(1-{5-[(3RS)-2,6-dioxopiperidin-3-yl]pyridin-2-yl}piperidin-4-yl)methyl]piperazin-1-yl}pyridin-2-yl)-3-(pyridin-4-yl)-1H-pyrazol-4-yl]-2,5-difluorophenyl}-3-fluoropyrrolidine-1-sulfonamide], the DC50 in assay [1] (setting [13]) is less than 10 nM; in assay [2] (setting [15]), less than 10 nM; in assay [3] (setting [17]), 10 to 50 nM; in assay [4] (setting [19]) it was less than 10 nM. In addition, the Dmax in assay [1] (setting [14]), in assay [2] (setting [16]), in assay [3] (setting [18]) and in assay [4] (setting [20]) was greater than 70% in each case.

With `CCCS(=O)(=O)Nc1cccc(-c2nc(C(C)(C)C)sc2-c2ccnc(Nc3ccc(C4CCN(CC5CCN(c6ccc(C7CCC(=O)NC7=O)cn6)CC5)CC4)cc3)n2)c1F` (racemic) [Compound 35, Rac-N-[3-(2-tert-butyl-5-{2-[(4-{1-[(1-{5-[(3R)-2,6-dioxopiperidin-3-yl]pyridin-2-yl}piperidin-4-yl)methyl]piperidin-4-yl}phenyl)amino]pyrimidin-4-yl}-1,3-thiazol-4-yl)-2-fluorophenyl]propane-1-sulfonamide], the DC50 in assay [1] (setting [5]) is less than 10 nM; in assay [2] (setting [7]), greater than 500 nM; in assay [3] (setting [9]) it was 10 to 50 nM; in assay [4] (setting [11]), greater than 500 nM. For the same molecule, the Dmax in assay [1] (setting [6]) was greater than 70%; in assay [2] (setting [8]), 30 to 70%; in assay [3] (setting [10]) it was less than 30%; in assay [4] (setting [12]) it was 30 to 70%.

As for `CCCS(=O)(=O)Nc1cccc(-c2cn(-c3ccc(N4CCN(CC5CCN(c6ccc([C@@H]7CCC(=O)NC7=O)cc6)CC5)CC4)cc3)nc2-c2ccncc2)c1F` [Compound 10, N-{3-[1-(4-{4-[(1-{4-[(3S)-2,6-dioxopiperidin-3-yl]phenyl}piperidin-4-yl)methyl]piperazin-1-yl}phenyl)-3-(pyridin-4-yl)-1H-pyrazol-4-yl]-2-fluorophenyl}propane-1-sulfonamide], the DC50 in assay [1] (setting [5]) was 10 to 50 nM; in assay [2] (setting [7]) it was 10 to 50 nM; in assay [3] (setting [9]), greater than 500 nM; in assay [4] (setting [11]) it was greater than 500 nM. For the same molecule, the Dmax in assay [1] (setting [6]) is greater than 70%; in assay [2] (setting [8]), 30 to 70%; in assay [3] (setting [10]), 30 to 70%; in assay [4] (setting [12]), 30 to 70%.

Regarding `O=C1CC[C@H](c2ccc(N3CCC(CN4CCCN(c5ccc(-n6cc(-c7cc(Cl)cc(NS(=O)(=O)N8CCCC8)c7F)c(-c7ccncc7)n6)c(F)c5)CC4)CC3)cc2)C(=O)N1` [Compound 346, N-{5-chloro-3-[1-(4-{4-[(1-{4-[(3R)-2,6-dioxopiperidin-3-yl]phenyl}piperidin-4-yl)methyl]-1,4-diazepan-1-yl}-2-fluorophenyl)-3-(pyridin-4-yl)-1H-pyrazol-4-yl]-2-fluorophenyl}pyrrolidine-1-sulfonamide], the DC50 in assay [1] (setting [13]) is less than 10 nM; in assay [2] (setting [15]) it was greater than 500 nM; in assay [3] (setting [17]) it was greater than 500 nM; in assay [4] (setting [19]), greater than 500 nM. The Dmax in assay [1] (setting [14]) was greater than 70%; in assay [2] (setting [16]), 30 to 70%; in assay [3] (setting [18]) it was less than 30%; in assay [4] (setting [20]) it was less than 30%.

As for `CCCS(=O)(=O)Nc1cccc(-c2cn(-c3ccc(C4CCN(CC5CCN(c6ccc(C7CCC(=O)NC7=O)c(F)c6)CC5)CC4)cc3)nc2-c2ccncc2)c1F` (racemic) [Compound 23, Rac-N-{3-[1-(4-{1-[(1-{4-[(3R)-2,6-dioxopiperidin-3-yl]-3-fluorophenyl}piperidin-4-yl)methyl]piperidin-4-yl}phenyl)-3-(pyridin-4-yl)-1H-pyrazol-4-yl]-2-fluorophenyl}propane-1-sulfonamide], the DC50 in assay [1] (setting [5]) was 10 to 50 nM; in assay [2] (setting [7]), 10 to 50 nM; in assay [3] (setting [9]), greater than 500 nM; in assay [4] (setting [11]), greater than 500 nM. The Dmax in assay [1] (setting [6]) is greater than 70%; in assay [2] (setting [8]), 30 to 70%; in assay [3] (setting [10]), less than 30%; in assay [4] (setting [12]), 30 to 70%.

For `O=C1CC[C@H](c2ccc(N3CCC(CN4CCN(c5ccc(-n6cc(-c7cc(Cl)cc(NS(=O)(=O)C8CCCC8)c7F)c(-c7ccncc7)n6)cc5)CC4)CC3)nc2)C(=O)N1` [Compound 372, N-{5-chloro-3-[1-(4-{4-[(1-{5-[(3R)-2,6-dioxopiperidin-3-yl]pyridin-2-yl}piperidin-4-yl)methyl]piperazin-1-yl}phenyl)-3-(pyridin-4-yl)-1H-pyrazol-4-yl]-2-fluorophenyl}cyclopentanesulfonamide], the DC50 in assay [1] (setting [13]) was less than 10 nM; in assay [2] (setting [15]) it was 10 to 50 nM; in assay [3] (setting [17]), 10 to 50 nM; in assay [4] (setting [19]), less than 10 nM. For the same molecule, the maximal degradation (Dmax) in assay [1] (setting [14]), in assay [2] (setting [16]), in assay [3] (setting [18]) and in assay [4] (setting [20]) was greater than 70% in each case.
